Here are results for 6 compounds from PubChem BioAssay AID463174 (Southern Research Specialized Biocontainment Screening …, 2010).

Experiment [1] is described as follows: late-stage follow-up, counter-screen for PhoP regulon inhibitor project, purified and synthesized compounds, set 5 (AID 463174). As to conditions: S. Typhi promoter-GFP counter-screen, fluorescence, 4 h; at 150 µM (top of the series). (In general: Counterscreens check selectivity or assay interference.)
Experiment [2] relates to S. Typhi promoter-GFP counter-screen, fluorescence, 4 h. The experiment is described as above.

Calls of active or inactive are those of the source. The rule behind the calls is not given here.

One may read the inhibition as the drop in the measured response relative to a control, in per cent. `Clc1ccc(C2Sc3ccccc3N=C3c4ccccc4CC32)cc1` (stereo unspecified): the inhibition in experiment [1] is -48.2% (inactive).

Turning to `O=C1C2=C(Nc3ccccc3SC2c2cccc(Br)c2)c2ccccc21` (stereo unspecified), the inhibition in experiment [1] was -12.6% (inactive). In general, IC50 refers to the point on the concentration scale where inhibition reaches its midpoint. Consider `O=C1C2=C(Nc3ccccc3SC2c2ccc(Cl)cc2)c2ccccc21` (stereo unspecified), for which the IC50 in experiment [2] is 89.6 µM. Regarding `O=C1C2=C(Nc3ccccc3SC2c2cccnc2)c2ccccc21` (stereo unspecified), in experiment [1], the inhibition is -32.9% (inactive). Consider `Cc1ccc(C2Sc3ccccc3N=C3c4ccccc4CC32)cc1` (stereo unspecified), for which, in experiment [1], the inhibition is -45.3% (inactive).

As for `COc1cccc(NC(=O)N2CCCN(Cc3ccccc3F)C2)c1`, the inhibition in experiment [1] was -3.56% (inactive).
